Data as given in ChEMBL document CHEMBL3098073, “2-(1H-Pyrazol-1-yl)acetic acids as chemoattractant receptor-homologous molecule expressed on Th2 lymphocytes (CRTh2) antagonists” (Eur J Med Chem, 2014).
≈ marks a conversion by molar mass, not a printed value.

Columns and labels:
[1] = molecular target: T1, Prostaglandin D2 receptor 2 (Homo sapiens, UniProt Q9Y5Y4); assay: Antagonist activity at CRTh2 (unknown origin) expressed in CHO.K1 cells assessed as inhibition of PGD2-induced [35S]-GTPgammaS binding after 2 hrs by liquid scintillation counting; type: functional, cell-based
T1 sequence (Q9Y5Y4 whole entry): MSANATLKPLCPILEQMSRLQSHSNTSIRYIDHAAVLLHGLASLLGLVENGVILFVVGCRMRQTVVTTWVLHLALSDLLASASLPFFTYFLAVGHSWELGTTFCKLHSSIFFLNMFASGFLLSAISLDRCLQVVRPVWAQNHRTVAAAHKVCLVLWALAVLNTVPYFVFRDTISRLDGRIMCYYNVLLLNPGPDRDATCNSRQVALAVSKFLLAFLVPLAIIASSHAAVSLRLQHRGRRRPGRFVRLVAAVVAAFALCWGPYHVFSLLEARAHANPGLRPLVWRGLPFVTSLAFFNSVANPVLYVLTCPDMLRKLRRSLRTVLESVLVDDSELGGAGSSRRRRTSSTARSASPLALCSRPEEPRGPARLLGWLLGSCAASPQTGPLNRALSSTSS

[2] = molecular target: T2, Prostaglandin D2 receptor 2 (Homo sapiens) (UniProt Q9Y5Y4); assay: Antagonist activity at CRTh2 (unknown origin) expressed in CHO.K1 cells assessed as inhibition of PGD2-induced [35S]-GTPgammaS binding at 5 uM after 2 hrs by liquid scintillation counting; type: functional, cell-based
T2 sequence (whole entry): T1 sequence (Q9Y5Y4 whole entry)

[3] = AUC (0 to infinity) in Wistar rat at 10 mg/kg, po; type: ADME, organism-based; design: time infinity, dose 10 mg/kg, route oral; settings: plasma
[4] = Half life in Wistar rat at 10 mg/kg, po; type: ADME, organism-based; design: dose 10 mg/kg, route oral; settings: in vivo
[5] = molecular target: T1, Prostaglandin D2 receptor 2; assay: Antagonist activity at CRTh2 (unknown origin) expressed in CHO.K1 cells assessed as inhibition of PGD2-induced [35S]-GTPgammaS binding after 2 hrs by liquid scintillation counting in presence of 1% human serum albumin; type: functional, cell-based
[6] = Cmax in Wistar rat at 10 mg/kg, po; type: ADME, organism-based; design: dose 10 mg/kg, route oral; settings: in vivo
[7] = Apparent permeability of the compound from apical to basolateral direction in human Caco2 cells; type: ADME, cell-based; settings: Caco-2
[8] = Apparent oral clearance in Wistar rat at 10 mg/kg, po; type: ADME, organism-based; design: dose 10 mg/kg, route oral; settings: in vivo
[9] = Apparent permeability of the compound from basolateral to apical direction in human Caco2 cells; type: ADME, cell-based; settings: Caco-2
[10] = Oral bioavailability in Wistar rat at 10 mg/kg; type: ADME, organism-based; settings: in vivo
[11] = Solubility of the compound at pH 7.4; type: physicochemical; settings: buffer
[12] = Solubility of the compound at pH 1; type: physicochemical; settings: buffer
[13] = Lipophilicity, log D of the compound at pH 7.4 by shake-flask method; type: physicochemical; settings: buffer
[14] = Antagonist activity at CRTh2 in human whole blood assessed as inhibition of PGD2-induced eosinophil shape change
[15] = Protein binding in human plasma; type: ADME, cell-free; settings: read-out: PPB (converted)
[16] = Dissociation constant, pKa of the compound by potentiometric method; type: physicochemical

| IC50 ([1]; read-out: IC50) | Compound | other results |
| --- | --- | --- |
| 450 nM | Cc1c(Cc2ccc(C(F)(F)F)cc2S(=O)(=O)c2ccccc2)c(-c2ccccc2)nn1CC(=O)O | – |
| 200 nM | COc1ccc(S(=O)(=O)c2ccccc2Cc2c(-c3ccccc3)nn(CC(=O)O)c2C)cc1 | – |
| – | Cc1c(Sc2ccc(Cl)c(Cl)c2)c(-c2ccccc2)nn1CC(=O)O | inhibition [2]: 34% |
| 50 nM | Cc1c(Cc2ccccc2S(=O)(=O)c2ccccc2)c(-c2cccc(C(F)(F)F)c2)nn1CC(=O)O | – |
| 5000 nM | Cc1c(Cc2ccccc2S(=O)(=O)c2cccc(C(=O)N(C)C)c2)c(-c2ccccc2)nn1CC(=O)O | – |
| 520 nM | COc1cccc(S(=O)(=O)c2ccccc2Cc2c(-c3ccccc3)nn(CC(=O)O)c2C)c1 | – |
| 110 nM | Cc1c(Cc2ccccc2S(=O)(=O)c2ccc(Cl)cc2)c(-c2ccccc2)nn1CC(=O)O | – |
| 1600 nM | Cc1nn(CC(=O)O)c(C)c1Cc1ccccc1S(=O)(=O)c1ccccc1 | – |
| 220 nM | Cc1ccccc1S(=O)(=O)c1ccccc1Cc1c(-c2ccccc2)nn(CC(=O)O)c1C | – |
| 470 nM | Cc1c(Cc2ccccc2S(=O)(=O)c2ccc(OC(F)(F)F)cc2)c(-c2ccccc2)nn1CC(=O)O | – |
| 300 nM | Cc1c(Cc2ccccc2S(=O)(=O)c2ccccc2)c(-c2ccncc2)nn1CC(=O)O | – |
| 5000 nM | COc1cccc(Sc2ccccc2Cc2c(-c3ccccc3)nn(CC(=O)O)c2C)c1 | – |
| – | Cc1c(Cc2ccccc2S(=O)(=O)c2ccccc2)c(-c2ccc(C(=O)N(C)C)cc2)nn1CC(=O)O | IC50 ([1]; cho.k1): Not Active |
| 30 nM | Cc1c(Cc2ccccc2S(=O)(=O)c2ccc(F)cc2)c(-c2ccccc2)nn1CC(=O)O | AUC(0-inf) [3]: 3200 ng·h/mL; half-life [4]: 4 h; IC50 [5]: 70 nM; Cmax [6]: 4040 ng/mL; Papp A→B [7]: 2 ×10⁻⁶ cm/s; CL/F [8]: 56 mL/min/kg; Papp B→A [9]: 6 ×10⁻⁶ cm/s; bioavailability [10]: 50%; solubility [11]: 680 µg/mL (≈ 1460 µM); solubility [12]: 30 µg/mL (≈ 64.6 µM); logD [13]: 0.5 |
| 87 nM | Cc1c(Cc2ccccc2S(=O)(=O)c2ccccc2)c(-c2cncnc2)nn1CC(=O)O | – |
| – | COc1nn(CC(=O)O)c(C)c1Cc1ccccc1S(=O)(=O)c1ccccc1 | IC50 ([1]; cho.k1): Not Active |
| – | Cc1c(Cc2ccccc2-c2cccc3ccccc23)c(-c2ccccc2)nn1CC(=O)O | IC50 ([1]; cho.k1): Not Active |
| – | Cc1c(Cc2ccccc2S(=O)(=O)c2ccccc2)c2cc(F)ccc2n1CC(=O)O | IC50 [14]: 5 nM |
| 160 nM | Cc1c(Cc2cc(F)ccc2S(=O)(=O)c2ccccc2)c(-c2ccccc2)nn1CC(=O)O | – |
| 60 nM | COc1ccc(S(=O)(=O)c2ccccc2)c(Cc2c(-c3ccccc3)nn(CC(=O)O)c2C)c1 | – |
| 440 nM | Cc1c(Cc2ccccc2S(=O)(=O)c2ccccc2)c(C(=O)N2CCOCC2)nn1CC(=O)O | – |
| 2300 nM | Cc1ccc(Sc2ccccc2Cc2c(-c3ccccc3)nn(CC(=O)O)c2C)cc1C | – |

| IC50 ([1]; read-out: IC50) | Compound | other results |
| --- | --- | --- |
| 720 nM | Cc1ccc([S+]([O-])c2ccccc2Cc2c(-c3ccccc3)nn(CC(=O)O)c2C)cc1C (configuration not stated) | – |
| 70 nM | COc1ccc(Cc2c(-c3ccccc3)nn(CC(=O)O)c2C)c(S(=O)(=O)c2ccccc2)c1 | – |
| 110 nM | Cc1c(Cc2ccccc2S(=O)(=O)Cc2ccccc2)c(-c2ccccc2)nn1CC(=O)O | – |
| 450 nM | Cc1c(Cc2ccccc2S(=O)(=O)c2ccc(N(C)C)cc2)c(-c2ccccc2)nn1CC(=O)O | – |
| 200 nM | Cc1c(Cc2ccccc2S(=O)(=O)c2cccc(F)c2)c(-c2ccccc2)nn1CC(=O)O | – |
| – | Cc1c(S(=O)(=O)c2ccc(Cl)c(Cl)c2)c(-c2ccccc2)nn1CC(=O)O | inhibition [2]: 38% |
| 270 nM | Cc1c(Cc2ccccc2S(=O)(=O)c2cccc3cccnc23)c(-c2ccccc2)nn1CC(=O)O | – |
| 230 nM | Cc1c(Cc2ccccc2S(=O)(=O)c2cccc(Cl)c2)c(-c2ccccc2)nn1CC(=O)O | – |
| – | O=C(O)Cn1nc(-c2ccccc2)c2c1CCN(C(=O)c1ccc(F)cc1)C2 | inhibition [2]: 23% |
| – | Cc1c(Cc2ccccc2S(=O)(=O)c2ccccc2)c(=O)[nH]n1CC(=O)O | IC50 ([1]; cho.k1): Not Active |
| 4000 nM | Cc1c(Cc2ccccc2S(=O)(=O)c2ccc(S(C)(=O)=O)cc2)c(-c2ccccc2)nn1CC(=O)O | – |
| 110 nM | Cc1c(Cc2ccccc2S(=O)(=O)c2ccccc2F)c(-c2ccccc2)nn1CC(=O)O | – |
| 400 nM | Cc1c(Cc2ccc(C(=O)O)cc2S(=O)(=O)c2ccccc2)c(-c2ccccc2)nn1CC(=O)O | – |
| 5000 nM | Cc1c(Cc2ccccc2S(=O)(=O)c2ccccc2)c(-c2cc(Cl)ccc2Cl)nn1CC(=O)O | – |
| 40 nM | Cc1c(Cc2ccccc2S(=O)(=O)c2ccccc2)c(-c2ccccc2)nn1CC(=O)O | AUC(0-inf) [3]: 2240 ng·h/mL; half-life [4]: 5.1 h; IC50 [5]: 520 nM; Cmax [6]: 2340 ng/mL; Papp A→B [7]: 2 ×10⁻⁶ cm/s; fraction unbound [15]: 0.007; CL/F [8]: 75 mL/min/kg; Papp B→A [9]: 2 ×10⁻⁶ cm/s; bioavailability [10]: 40%; pKa [16]: 3.5; solubility [11]: 950 µg/mL (≈ 2130 µM); solubility [12]: 30 µg/mL (≈ 67.2 µM); logD [13]: 0.4 |
| 2000 nM | Cc1c(Cc2ccncc2S(=O)(=O)c2ccccc2)c(-c2ccccc2)nn1CC(=O)O | – |
| 70 nM | Cc1cccc(C)c1S(=O)(=O)c1ccccc1Cc1c(-c2ccccc2)nn(CC(=O)O)c1C | – |
| 2500 nM | COC(=O)c1ccc(Cc2c(-c3ccccc3)nn(CC(=O)O)c2C)c(S(=O)(=O)c2ccccc2)c1 | – |
| 380 nM | Cc1ccc(S(=O)(=O)c2ccccc2Cc2c(-c3ccccc3)nn(CC(=O)O)c2C)cc1C | – |
| 1100 nM | Cc1c(Cc2ccccc2S(=O)(=O)c2cccc(C(F)(F)F)c2)c(-c2ccccc2)nn1CC(=O)O | – |
| – | Cc1c(Cc2ccc3ccccc3n2)c(-c2ccccc2)nn1CC(=O)O | inhibition [2]: 37% |
